biological target: T1, Human S1P3 receptor (Homo sapiens, UniProt Q99500); assay: Suppression of S1P-induced cellular calcium mobilization in human S1P3 receptor-expression CHO cells (Schild plot); type: cell-based; conditions: Schild plot of S1P EC50 shift; test compound 125 nM, 1.25 μM, 12.5 μM; hS1P3 CHO cells; read-out: S1P3 dissociation constant Kd value
T1 construct: expressed in transfected cells; host or cells: CHO cells (Geneticin-selected)
Experimental: Suppression Effect of Test Compound Against Cellular Calcium Mobilization of Human S1P3 Receptor-Expression Cell by S1P (Sphingosine 1-Phosphoric Acid)
Human S1P3 receptor-expression CHO cells were subcultured in a Ham's F-12 culture medium containing 10% fetal bovine serum, and 300 μg/mL of Geneticin. The human S1P3 receptor-expression CHO cells were subjected to 0.25% trypsinization, then recovered from the dish, and floated in a Ham's F-12 culture medium containing 10% fetal bovine serum, and 300 μg/mL of Geneticin. After that, the human S1P3 receptor-expression CHO cells were disseminated into a 96-well black clear bottom plate (BD Falcon Biocoat) so that 7×10^4/100 μL/well of the human S1P3 receptor-expression CHO cells were disseminated. And then, the human S1P3 receptor-expression CHO cells were cultivated for one night at 37° C. under 5% CO2. The next day, the wells were washed 3 times with 100 μL of PBS containing 0.1% fatty acid-free bovine serum albumin (BSA). The culture medium was exchanged with a Ham's F-12 culture medium containing 0.1% BSA, and then starved of serum for 6 hours in an CO2 incubator at 37° C.
The culture medium was thrown away after the 6 hours. Then, 50 μL/well of a Fluo3 loading buffer was added, and the cultures were cultivated for further 1 hour. The Fluo3 loading buffer was prepared as follows. First, equal amounts of Fluo3-AM (Dojindo) and pluronic F-127 (20% DMSO solution, invitrogen) were mixed. Next, the mixture of Fluo3-AM and pluronic F-127 was added to a Hanks-HEPES buffer (balanced salt solution containing 20 mM HEPES (pH, 7.4), 0.1% BSA (fatty acid-free), and 2.5 mM probenecid) to form a Fluo3 loading buffer having a final Fluo3-AM concentration of 4
After incubating for 1 hour, the cultures were washed 3 times with 100 μL of the Hanks-HEPES buffer. Then, 100 μL of the same buffer in which a test compound (125 nM, 1.25 μM, 12.5 μM) or DMSO had been dissolved was added to the cultures, and then incubated for 30 minutes at 37° C. in a microplate spectrophotofluorometer (FLEX Station) (Molecular Device Co., Ltd.). Then, 25 μL of S1P prepared at 5 times the concentration of the final concentration by serial dilution (final concentration of 0.1 nM, 1 nM, 10 nM, 100 nM, and 1 μM) was added, and the fluorescence based on the Fluo3 due to calcium mobilization was detected and measured at an excitation wavelength of 485 nm and a detection wavelength of 525 nm using the same apparatus. Based on the measurement data, the increase in fluorescence was calculated by subtracting the minimum fluorescence intensity from the maximum fluorescence intensity. The measured increase in fluorescence was used to perform a curve approximation of the relationship between the S1P concentration and the increase in fluorescence using PRISM 4 software (GraphPad). Based on the results, the EC50 value of the compound-untreated and the EC50 value of the compound-treated at each concentration were calculated. Schild Plot analysis was performed based on these values to determine dissociation constant Kd value. In Table 1, 1,000 nmol/L>Kd value≧100 nmol/L is indicated as “+,” 100 nmol/L>Kd value≧10 nmol/L is indicated as “++,” 10 nmol/L>Kd value≧1 nmol/L is indicated as “+++,” and 1 nmol/L>Kd value is indicated as “++++.”

T1 sequence (Q99500 whole entry): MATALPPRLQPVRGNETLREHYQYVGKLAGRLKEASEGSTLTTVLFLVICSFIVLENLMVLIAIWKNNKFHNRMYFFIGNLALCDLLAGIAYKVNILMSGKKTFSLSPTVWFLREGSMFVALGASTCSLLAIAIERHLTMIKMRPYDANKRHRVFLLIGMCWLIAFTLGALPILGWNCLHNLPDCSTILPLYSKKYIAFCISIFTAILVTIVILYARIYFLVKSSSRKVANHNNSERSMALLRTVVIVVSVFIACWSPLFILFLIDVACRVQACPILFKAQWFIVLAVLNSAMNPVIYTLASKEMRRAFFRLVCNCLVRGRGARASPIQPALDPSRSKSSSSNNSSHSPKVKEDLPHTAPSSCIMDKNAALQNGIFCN

| SMILES | Kd |
| --- | --- |
| CC(C)c1ccc(O)c(Sc2ccc(CC[C@](C)(N)COP(=O)(O)O)c(Cl)c2)c1 [Example 4] | 1 to 10 nM |
| CC(C)Oc1ccc(O)c(Sc2ccc(CC[C@](C)(N)COP(=O)(O)O)c(Cl)c2)c1 [Example 8, (S)-2-amino-4-[2-chloro-4-(2-hydroxy-5-isopropoxyphenylthio)phenyl]-2-methylbutylphosphoric acid monoester] | 10 to 100 nM |
| CCc1ccc(O)c(Sc2ccc(CC[C@](C)(N)COP(=O)(O)O)c(Cl)c2)c1 [Example 2, (S)-2-amino-4-[2-chloro-4-(5-ethyl-2-hydroxyphenylthio)phenyl]-2-methylbutylphosphoric acid monoester] | 10 to 100 nM |
| CCOc1ccc(O)c(Sc2ccc(CC[C@](C)(N)COP(=O)(O)O)c(Cl)c2)c1 [Example 7, (S)-2-amino-4-[2-chloro-4-(5-ethoxy-2-hydroxyphenylthio)phenyl]-2-methylbutylphosphoric acid monoester] | 10 to 100 nM |
| CC(=O)c1ccc(O)c(Sc2ccc(CC[C@](C)(N)COP(=O)(O)O)c(Cl)c2)c1 [Example 16, (S)-4-[4-(5-acetyl-2-hydroxyphenylthio)-2-chlorophenyl]-2-amino-2-methylbutylphosphoric acid monoester] | 10 to 100 nM |
| CCC[C@](N)(CCc1ccc(Sc2cc(C(C)C)ccc2O)cc1Cl)COP(=O)(O)O [Example 19, (S)-2-amino-4-[2-chloro-4-(2-hydroxy-5-isopropylphenylthio)phenyl]-2-propylbutylphosphoric acid monoester] | 1 to 10 nM |
| CCC[C@](N)(CCc1ccc(Sc2cc(OCc3ccccc3)ccc2O)cc1Cl)COP(=O)(O)O [Example 23, (S)-2-amino-4-[4-(5-benzyloxy-2-hydroxyphenylthio)-2-chlorophenyl]-2-propylbutylphosphoric acid monoester] | 1 to 10 nM |
| C[C@](N)(CCc1ccc(Sc2cc(C(F)(F)F)ccc2O)cc1Cl)CCP(=O)(O)O [Example 17, (S)-3-amino-5-[2-chloro-4-(2-hydroxy-5-trifluoromethylphenylthio)phenyl]-3-methylpentylphosphonic acid] | 100 to 1000 nM |
| C[C@](N)(CCc1ccc(Sc2cc(OCc3ccccc3)ccc2O)cc1Cl)COP(=O)(O)O [Example 9, (S)-2-amino-4-[4-(5-benzyloxy-2-hydroxyphenylthio)-2-chlorophenyl]-2-methylbutylphosphoric acid monoester] | 1 to 10 nM |
| C[C@](N)(CCc1ccc(Sc2cc(Cl)ccc2O)cc1Cl)COP(=O)(O)O [Example 10, (S)-2-amino-4-[2-chloro-4-(5-chloro-2-hydroxyphenylthio)phenyl]-2-methylbutylphosphoric acid monoester] | 10 to 100 nM |
| CCCc1ccc(O)c(Sc2ccc(CC[C@](C)(N)COP(=O)(O)O)c(Cl)c2)c1 [Example 3, (S)-2-amino-4-[2-chloro-4-(2-hydroxy-5-propylphenylthio)phenyl]-2-methylbutylphosphoric acid monoester] | 10 to 100 nM |
| COc1ccc(O)c(Sc2ccc(CC[C@](C)(N)COP(=O)(O)O)c(Cl)c2)c1 [Example 6, (S)-2-amino-4-[2-chloro-4-(2-hydroxy-5-methoxyphenylthio)phenyl]-2-methylbutylphosphoric acid monoester] | 100 to 1000 nM |
| CCC[C@](N)(CCc1ccc(Sc2cc(C3CC3)ccc2O)cc1Cl)COP(=O)(O)O [Example 20, (S)-2-amino-4-[2-chloro-4-(5-cyclopropyl-2-hydroxyphenylthio)phenyl]-2-propylbutylphosphoric acid monoester] | 1 to 10 nM |
| CCC[C@](N)(CCc1ccc(Sc2cc(C(C)(C)C)ccc2O)cc1Cl)COP(=O)(O)O [Example 21, (S)-2-amino-4-[4-(5-t-butyl-2-hydroxyphenylthio)-2-chlorophenyl]-2-propylbutylphosphoric acid monoester] | < 1 nM |
| C[C@](N)(CCc1ccc(Sc2ccccc2O)cc1Cl)COP(=O)(O)O [Example 14, (S)-2-amino-4-[2-chloro-4-(2-hydroxyphenylthio)phenyl]-2-methylbutylphosphoric acid monoester] | 10 to 100 nM |

From patent publication US8569270B2, “Diphenyl sulfide derivatives and medicines containing same as active ingredient” (Kyorin Pharmaceutical Co., Ltd., priority 2009, dated 2013)
